Reference: BindingDB's records for PubMed 20126400 (University of Oklahoma, 2010)

Tests used:
Test in all cases: Ray2010 Assay 74
[1] = biological target: 5-hydroxytryptamine receptor 1E (Homo sapiens, UniProt P28566)
Excerpt: (§1) Table S2 shows raw Ki data for the current study combined with data collected from the literature for the ten additional compounds.

[2] = biological target: T1, 5-hydroxytryptamine receptor 1A (Homo sapiens, UniProt P08908)
T1 sequence (P08908 whole entry): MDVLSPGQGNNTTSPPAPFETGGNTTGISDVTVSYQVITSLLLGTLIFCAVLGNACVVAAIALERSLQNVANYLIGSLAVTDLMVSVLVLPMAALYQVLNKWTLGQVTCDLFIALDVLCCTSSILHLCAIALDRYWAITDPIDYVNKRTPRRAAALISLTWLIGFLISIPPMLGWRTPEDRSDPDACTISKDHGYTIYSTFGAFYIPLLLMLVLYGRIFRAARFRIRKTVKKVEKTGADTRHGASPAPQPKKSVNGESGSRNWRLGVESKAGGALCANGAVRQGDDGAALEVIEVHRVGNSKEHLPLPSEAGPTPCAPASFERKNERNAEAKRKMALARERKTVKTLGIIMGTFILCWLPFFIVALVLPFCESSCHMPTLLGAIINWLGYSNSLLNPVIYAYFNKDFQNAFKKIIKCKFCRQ
Excerpt: as §1

[3] = biological target: 5-hydroxytryptamine receptor 6 (Homo sapiens, UniProt P50406)
Sequence of 5-hydroxytryptamine receptor 6 (P50406 whole entry): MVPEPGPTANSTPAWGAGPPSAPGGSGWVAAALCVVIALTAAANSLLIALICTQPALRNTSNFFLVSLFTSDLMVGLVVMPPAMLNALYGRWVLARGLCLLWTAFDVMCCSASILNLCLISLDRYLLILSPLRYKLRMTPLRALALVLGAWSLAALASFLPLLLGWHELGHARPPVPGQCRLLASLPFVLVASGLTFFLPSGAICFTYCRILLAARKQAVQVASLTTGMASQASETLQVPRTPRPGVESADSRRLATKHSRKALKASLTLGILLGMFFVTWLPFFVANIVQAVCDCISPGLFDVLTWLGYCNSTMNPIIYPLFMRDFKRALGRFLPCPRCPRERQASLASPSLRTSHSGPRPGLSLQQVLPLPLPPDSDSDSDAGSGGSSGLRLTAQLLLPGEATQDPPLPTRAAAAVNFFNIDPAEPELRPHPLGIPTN
Excerpt: as §1

[4] = biological target: T2, Alpha-1B adrenergic receptor (Homo sapiens, UniProt P35368)
T2 sequence (P35368 whole entry): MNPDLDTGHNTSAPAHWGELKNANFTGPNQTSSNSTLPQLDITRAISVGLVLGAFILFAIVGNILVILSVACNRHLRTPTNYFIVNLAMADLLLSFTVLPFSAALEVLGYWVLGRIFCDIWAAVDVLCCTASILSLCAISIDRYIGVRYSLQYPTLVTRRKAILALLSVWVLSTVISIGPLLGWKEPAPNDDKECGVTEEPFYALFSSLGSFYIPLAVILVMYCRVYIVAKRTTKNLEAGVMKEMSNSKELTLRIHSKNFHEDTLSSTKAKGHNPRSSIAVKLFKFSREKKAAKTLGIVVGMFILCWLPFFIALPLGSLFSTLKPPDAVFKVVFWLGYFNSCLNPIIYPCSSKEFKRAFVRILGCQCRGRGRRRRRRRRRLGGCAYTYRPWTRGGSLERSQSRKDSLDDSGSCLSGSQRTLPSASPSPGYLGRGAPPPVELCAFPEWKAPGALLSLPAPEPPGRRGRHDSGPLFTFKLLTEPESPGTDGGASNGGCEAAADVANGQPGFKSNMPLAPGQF
Excerpt: as §1

[5] = biological target: Beta-1 adrenergic receptor (Homo sapiens, UniProt P08588)
Sequence of Beta-1 adrenergic receptor (P08588 whole entry): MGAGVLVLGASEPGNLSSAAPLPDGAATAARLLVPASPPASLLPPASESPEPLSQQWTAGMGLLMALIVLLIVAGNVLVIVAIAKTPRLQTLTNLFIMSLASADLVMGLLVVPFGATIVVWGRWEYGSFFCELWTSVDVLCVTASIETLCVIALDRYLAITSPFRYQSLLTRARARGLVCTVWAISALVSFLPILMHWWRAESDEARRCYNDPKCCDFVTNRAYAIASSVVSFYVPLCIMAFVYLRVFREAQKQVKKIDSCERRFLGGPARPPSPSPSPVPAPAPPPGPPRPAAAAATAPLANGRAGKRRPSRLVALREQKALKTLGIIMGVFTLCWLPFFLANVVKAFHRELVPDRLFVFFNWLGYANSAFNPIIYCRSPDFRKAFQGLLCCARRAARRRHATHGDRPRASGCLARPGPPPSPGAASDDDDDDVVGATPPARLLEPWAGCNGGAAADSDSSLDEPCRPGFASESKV
Excerpt: as §1

[6] = biological target: 5-hydroxytryptamine receptor 5A (Homo sapiens, UniProt P47898)
Sequence of 5-hydroxytryptamine receptor 5A (P47898 whole entry): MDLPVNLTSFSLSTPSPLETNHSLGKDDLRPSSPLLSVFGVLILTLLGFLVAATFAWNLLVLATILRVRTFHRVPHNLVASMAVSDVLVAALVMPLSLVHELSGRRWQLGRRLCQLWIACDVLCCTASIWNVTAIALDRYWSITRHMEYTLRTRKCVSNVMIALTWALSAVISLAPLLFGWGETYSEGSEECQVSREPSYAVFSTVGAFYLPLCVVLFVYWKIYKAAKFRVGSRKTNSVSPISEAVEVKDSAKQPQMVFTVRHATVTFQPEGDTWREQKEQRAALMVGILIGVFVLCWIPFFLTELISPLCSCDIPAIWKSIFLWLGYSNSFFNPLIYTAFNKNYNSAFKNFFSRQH
Excerpt: as §1

[7] = biological target: Histamine H2 receptor (Homo sapiens, UniProt P25021)
Sequence of Histamine H2 receptor (P25021 whole entry): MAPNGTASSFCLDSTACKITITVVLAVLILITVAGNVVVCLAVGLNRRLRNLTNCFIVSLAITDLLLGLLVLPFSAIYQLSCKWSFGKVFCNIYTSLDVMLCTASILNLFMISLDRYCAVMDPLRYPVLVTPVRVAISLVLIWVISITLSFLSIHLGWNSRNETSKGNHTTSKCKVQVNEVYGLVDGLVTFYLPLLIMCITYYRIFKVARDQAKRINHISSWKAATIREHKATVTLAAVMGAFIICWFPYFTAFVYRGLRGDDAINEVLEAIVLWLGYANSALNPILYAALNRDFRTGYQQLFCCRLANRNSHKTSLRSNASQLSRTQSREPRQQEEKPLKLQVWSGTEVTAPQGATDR
Excerpt: as §1

[8] = biological target: D(1A) dopamine receptor (Homo sapiens, UniProt P21728)
Sequence of D(1A) dopamine receptor (P21728 whole entry): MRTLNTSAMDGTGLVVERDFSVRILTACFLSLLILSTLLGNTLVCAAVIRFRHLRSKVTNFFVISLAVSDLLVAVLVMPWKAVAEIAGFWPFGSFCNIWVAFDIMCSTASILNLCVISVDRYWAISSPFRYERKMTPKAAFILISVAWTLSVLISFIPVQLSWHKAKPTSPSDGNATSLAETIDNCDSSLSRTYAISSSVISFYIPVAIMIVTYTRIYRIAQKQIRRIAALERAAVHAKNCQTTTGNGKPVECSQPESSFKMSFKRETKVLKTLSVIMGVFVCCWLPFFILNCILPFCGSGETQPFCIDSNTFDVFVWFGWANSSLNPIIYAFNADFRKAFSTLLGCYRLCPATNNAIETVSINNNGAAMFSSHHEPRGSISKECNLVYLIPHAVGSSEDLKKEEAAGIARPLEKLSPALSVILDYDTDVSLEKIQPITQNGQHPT
Excerpt: as §1

[9] = biological target: T3, Muscarinic acetylcholine receptor M5 (Homo sapiens, UniProt P08912)
T3 sequence (P08912 whole entry): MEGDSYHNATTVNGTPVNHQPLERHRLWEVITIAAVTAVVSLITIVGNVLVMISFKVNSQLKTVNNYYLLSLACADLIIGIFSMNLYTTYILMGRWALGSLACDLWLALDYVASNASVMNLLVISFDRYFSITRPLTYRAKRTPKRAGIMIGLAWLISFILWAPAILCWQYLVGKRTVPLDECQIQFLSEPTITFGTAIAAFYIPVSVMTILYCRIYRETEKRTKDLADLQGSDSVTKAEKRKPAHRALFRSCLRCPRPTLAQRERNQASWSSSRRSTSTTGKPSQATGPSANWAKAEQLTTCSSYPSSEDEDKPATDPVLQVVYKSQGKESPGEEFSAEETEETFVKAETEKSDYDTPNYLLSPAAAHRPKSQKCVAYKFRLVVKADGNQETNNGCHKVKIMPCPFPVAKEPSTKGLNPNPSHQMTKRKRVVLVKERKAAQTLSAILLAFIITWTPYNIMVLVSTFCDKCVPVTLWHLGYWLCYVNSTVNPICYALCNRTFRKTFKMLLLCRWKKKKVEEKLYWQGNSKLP
Excerpt: as §1

[10] = biological target: D(1B) dopamine receptor (Homo sapiens, UniProt P21918)
Sequence of D(1B) dopamine receptor (P21918 whole entry): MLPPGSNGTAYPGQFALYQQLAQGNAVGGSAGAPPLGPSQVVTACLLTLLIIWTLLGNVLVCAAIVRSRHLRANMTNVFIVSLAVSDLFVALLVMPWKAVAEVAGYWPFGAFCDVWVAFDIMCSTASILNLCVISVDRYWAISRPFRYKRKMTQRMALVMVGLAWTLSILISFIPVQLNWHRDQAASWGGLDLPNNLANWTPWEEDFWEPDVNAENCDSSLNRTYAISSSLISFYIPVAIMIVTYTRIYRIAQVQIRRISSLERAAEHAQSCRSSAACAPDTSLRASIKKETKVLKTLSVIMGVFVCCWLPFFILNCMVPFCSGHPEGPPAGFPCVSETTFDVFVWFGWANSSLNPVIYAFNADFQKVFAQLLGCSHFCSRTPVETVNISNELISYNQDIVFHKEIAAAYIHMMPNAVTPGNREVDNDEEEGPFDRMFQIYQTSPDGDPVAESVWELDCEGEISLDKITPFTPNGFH
Excerpt: as §1

[11] = biological target: Sodium-dependent serotonin transporter (Homo sapiens, UniProt P31645)
Sequence of Sodium-dependent serotonin transporter (P31645 whole entry): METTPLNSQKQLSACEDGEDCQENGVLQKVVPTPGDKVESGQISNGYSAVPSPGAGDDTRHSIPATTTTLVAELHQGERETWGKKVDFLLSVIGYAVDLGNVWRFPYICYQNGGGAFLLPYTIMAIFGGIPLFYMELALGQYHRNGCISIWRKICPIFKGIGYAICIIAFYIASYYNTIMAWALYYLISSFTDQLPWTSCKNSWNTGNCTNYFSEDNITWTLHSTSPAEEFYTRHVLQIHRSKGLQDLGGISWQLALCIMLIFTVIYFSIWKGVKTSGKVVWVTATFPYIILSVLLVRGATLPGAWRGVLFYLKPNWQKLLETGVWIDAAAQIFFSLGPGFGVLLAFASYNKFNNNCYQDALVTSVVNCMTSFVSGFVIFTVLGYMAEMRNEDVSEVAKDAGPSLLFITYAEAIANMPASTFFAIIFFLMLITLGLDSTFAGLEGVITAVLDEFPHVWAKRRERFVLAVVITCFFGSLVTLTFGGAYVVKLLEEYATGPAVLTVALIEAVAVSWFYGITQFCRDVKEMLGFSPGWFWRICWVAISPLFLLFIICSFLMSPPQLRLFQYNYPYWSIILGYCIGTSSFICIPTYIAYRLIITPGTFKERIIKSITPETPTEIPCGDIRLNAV
Excerpt: as §1

[12] = biological target: Kappa-type opioid receptor (Homo sapiens, UniProt P41145)
Sequence of Kappa-type opioid receptor (P41145 whole entry): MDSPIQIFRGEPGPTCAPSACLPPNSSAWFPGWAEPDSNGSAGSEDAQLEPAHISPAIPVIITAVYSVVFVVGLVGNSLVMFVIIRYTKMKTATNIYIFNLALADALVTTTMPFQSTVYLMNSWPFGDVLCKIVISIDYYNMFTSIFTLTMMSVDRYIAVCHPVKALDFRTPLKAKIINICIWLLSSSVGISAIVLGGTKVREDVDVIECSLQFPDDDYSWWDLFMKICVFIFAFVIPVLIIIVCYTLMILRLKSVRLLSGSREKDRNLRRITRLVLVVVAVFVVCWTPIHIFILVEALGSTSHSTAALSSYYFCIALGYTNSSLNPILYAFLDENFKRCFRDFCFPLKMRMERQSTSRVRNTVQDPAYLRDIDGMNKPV
Excerpt: as §1

[13] = biological target: 5-hydroxytryptamine receptor 2B (Homo sapiens, UniProt P41595)
Sequence of 5-hydroxytryptamine receptor 2B (P41595 whole entry): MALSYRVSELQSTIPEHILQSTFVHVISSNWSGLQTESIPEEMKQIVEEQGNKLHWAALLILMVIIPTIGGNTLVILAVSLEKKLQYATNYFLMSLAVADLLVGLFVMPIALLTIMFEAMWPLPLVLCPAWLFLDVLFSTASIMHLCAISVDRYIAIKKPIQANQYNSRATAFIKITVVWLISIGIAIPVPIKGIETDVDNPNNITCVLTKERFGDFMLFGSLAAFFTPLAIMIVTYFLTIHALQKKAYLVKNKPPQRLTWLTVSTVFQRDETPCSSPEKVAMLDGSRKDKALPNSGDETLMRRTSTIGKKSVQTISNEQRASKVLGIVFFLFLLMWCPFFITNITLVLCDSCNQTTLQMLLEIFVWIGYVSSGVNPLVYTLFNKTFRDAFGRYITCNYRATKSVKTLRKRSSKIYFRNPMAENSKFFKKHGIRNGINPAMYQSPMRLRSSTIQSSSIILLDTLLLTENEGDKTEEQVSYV
Excerpt: as §1

[14] = biological target: T4, Gamma-aminobutyric acid receptor subunit alpha-1 (Homo sapiens, UniProt P14867)
T4 sequence (P14867 whole entry): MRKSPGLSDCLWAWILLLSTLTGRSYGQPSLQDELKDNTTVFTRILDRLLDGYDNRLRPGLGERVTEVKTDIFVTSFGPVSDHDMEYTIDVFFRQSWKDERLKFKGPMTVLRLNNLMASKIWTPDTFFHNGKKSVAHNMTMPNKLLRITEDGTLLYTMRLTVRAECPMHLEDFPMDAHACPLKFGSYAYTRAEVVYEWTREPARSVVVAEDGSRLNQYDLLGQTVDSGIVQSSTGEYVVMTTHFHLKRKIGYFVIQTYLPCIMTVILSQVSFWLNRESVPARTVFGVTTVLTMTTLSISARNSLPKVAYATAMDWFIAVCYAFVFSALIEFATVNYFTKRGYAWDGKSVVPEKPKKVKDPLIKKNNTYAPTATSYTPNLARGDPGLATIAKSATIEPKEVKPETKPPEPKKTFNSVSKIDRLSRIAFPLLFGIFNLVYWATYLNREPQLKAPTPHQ
Excerpt: as §1

[15] = biological target: Mu-type opioid receptor (Homo sapiens, UniProt P35372)
Sequence of Mu-type opioid receptor (P35372 whole entry): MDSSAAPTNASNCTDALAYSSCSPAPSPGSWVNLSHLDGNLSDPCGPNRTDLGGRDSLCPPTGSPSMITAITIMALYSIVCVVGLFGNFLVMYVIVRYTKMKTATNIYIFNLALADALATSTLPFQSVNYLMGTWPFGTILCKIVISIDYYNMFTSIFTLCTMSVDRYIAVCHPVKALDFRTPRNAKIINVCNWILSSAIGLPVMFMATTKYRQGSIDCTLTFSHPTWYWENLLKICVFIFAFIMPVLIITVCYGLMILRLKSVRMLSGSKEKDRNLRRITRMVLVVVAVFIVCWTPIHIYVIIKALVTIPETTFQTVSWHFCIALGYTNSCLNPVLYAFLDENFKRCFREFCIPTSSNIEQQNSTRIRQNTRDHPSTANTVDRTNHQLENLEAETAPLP
Excerpt: as §1

Sequence of 5-hydroxytryptamine receptor 1E (P28566 whole entry): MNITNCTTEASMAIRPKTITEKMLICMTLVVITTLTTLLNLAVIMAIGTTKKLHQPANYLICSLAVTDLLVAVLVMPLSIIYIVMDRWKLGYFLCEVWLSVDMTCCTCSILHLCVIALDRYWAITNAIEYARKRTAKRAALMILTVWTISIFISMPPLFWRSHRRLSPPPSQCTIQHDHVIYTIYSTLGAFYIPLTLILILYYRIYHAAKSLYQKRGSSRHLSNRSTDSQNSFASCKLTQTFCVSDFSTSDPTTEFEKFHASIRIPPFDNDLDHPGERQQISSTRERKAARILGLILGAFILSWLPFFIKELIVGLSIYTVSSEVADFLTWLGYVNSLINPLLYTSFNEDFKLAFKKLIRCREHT

Row | SMILES | Ki [1] | Ki [2] | Ki [3] | Ki [4] | Ki [5] | Ki [6] | Ki [7] | Ki [8] | Ki [9] | Ki [10] | Ki [11] | Ki [12] | Ki [13] | Ki [14] | Ki [15]
1 | CC(N)Cc1ccc2c(c1)OCO2 (centres undefined) | > 10 µM | 3.76 µM | > 10 µM | > 10 µM | > 10 µM | > 10 µM | > 10 µM | > 10 µM | > 10 µM | > 10 µM | > 10 µM | > 10 µM | 0.091 µM | > 10 µM | 
2 | CCOc1cc(OC)c(CC(C)N)cc1OC (centres undefined) | > 10 µM | > 10 µM | > 10 µM | > 10 µM | > 10 µM | > 10 µM | > 10 µM | > 10 µM | > 10 µM | > 10 µM | > 10 µM | > 10 µM | 0.0645 µM | > 10 µM | > 10 µM
3 | COc1cc(CCN)c(OC)cc1Br | 0.12 µM | 0.241 µM | 0.32 µM | > 10 µM |  | > 10 µM | > 10 µM | > 10 µM | > 10 µM | > 10 µM | > 10 µM | > 10 µM | 0.0135 µM | > 10 µM | > 10 µM
4 | CC[C@H]1C[C@@H]2C[C@H]3c4[nH]c5ccc(OC)cc5c4CCN(C2)[C@@H]13 |  | > 10 µM |  |  | > 10 µM |  |  | > 10 µM |  |  |  |  |  | > 10 µM | 4.36 µM
5 | CN(C)CCc1c[nH]c2ccccc12 [2-(1H-indol-3-yl)-N,N-dimethylethanamine] | 0.456 µM |  | 0.487 µM | 0.974 µM | > 10 µM | 0.611 µM | > 10 µM |  | > 10 µM | > 10 µM | 3.74 µM | > 10 µM |  | > 10 µM | 
6 | CCc1cc(OC)c(CCN)cc1OC [2-(2,5-dimethoxy-4-ethylphenyl)ethylamine] | 0.626 µM |  | 2.97 µM | > 10 µM | > 10 µM | > 10 µM | > 10 µM | > 10 µM | 1.73 µM | > 10 µM | > 10 µM | > 10 µM | 0.0251 µM | > 10 µM | > 10 µM
7 | CCSc1cc(OC)c(CC(C)N)cc1OC (centres undefined) [2-(4-Ethylsulfanyl-2,5-dimethoxy-phenyl)-1-methyl-ethylamine] |  | 1.67 µM |  | > 10 µM | 6.79 µM | > 10 µM | > 10 µM | > 10 µM | 8.02 µM | > 10 µM | 1.32 µM | > 10 µM | 0.0016 µM | > 10 µM | > 10 µM
8 | CCc1[nH]c2ccc(OC)cc2c1CCN(C)C [2-ethyl-5-methoxy-N,N-dimethyltryptamine] |  |  |  |  |  |  |  |  | > 10 µM |  |  | > 10 µM |  |  | > 10 µM
9 | COC(=O)[C@@H]1C[C@H](OC(C)=O)C(=O)[C@H]2[C@@]1(C)CC[C@H]1C(=O)O[C@H](c3ccoc3)C[C@]21C [2S,4aR,6a(R,7R,9S,10aS,10bR)-9-(acetyloxy)-2-(furan-3-yl)dodecahydro-6a,10b-dimethyl-4,10-dioxo-2H-naphtho[2,1-c]pyran-7-carboxylic acid methyl ester] | > 10 µM | > 10 µM | > 10 µM | > 10 µM | > 10 µM | > 10 µM |  | > 10 µM | > 10 µM | > 10 µM | > 10 µM |  | > 10 µM |  | 
10 | COc1cc(CCN)cc(OC)c1OC [3,4,5-trimethoxyphenylethylamine] | 5.2 µM | 1.84 µM | > 10 µM | > 10 µM | > 10 µM | > 10 µM | > 10 µM | > 10 µM | > 10 µM | > 10 µM | > 10 µM | > 10 µM |  | > 10 µM | > 10 µM
11 | COc1ccc2[nH]cc(CCN(C)C)c2c1 [3-(2-DIMETHYLAMINOETHYL)-5-METHOXYINDOLE] |  |  |  | > 10 µM | > 10 µM |  | > 10 µM | 0.0795 µM | > 10 µM | > 10 µM | 2.03 µM | > 10 µM |  | > 10 µM | 
12 | CN(C)CCc1c[nH]c2cccc(O)c12 [4-hydroxy-N,N-dimethyltryptamine] |  |  |  | > 10 µM | > 10 µM |  | > 10 µM |  |  | > 10 µM | 0.852 µM | > 10 µM |  | > 10 µM | > 10 µM
13 | COc1cc(OC)c(OC)cc1CC(C)N (stereo not drawn) [(+/-)1-Methyl-2-(2,4,5-trimethoxy-phenyl)-ethylamine] | > 10 µM | > 10 µM | > 10 µM | > 10 µM | > 10 µM | > 10 µM | > 10 µM | > 10 µM | > 10 µM | > 10 µM | > 10 µM |  | 0.154 µM |  | 
14 | COc1ccc2[nH]c(C)c(CCN(C)C)c2c1 [[2-(5-Methoxy-2-methyl-1H-indol-3-yl)-ethyl]-dimethyl-amine (C2H2O)] |  |  |  |  |  |  |  |  | > 10 µM |  |  | > 10 µM |  |  | > 10 µM
15 | CCN(CC)C(=O)[C@@H]1C=C2c3cccc4[nH]cc(c34)C[C@H]2N(C)C1 [[N-methyl-3H]LSD] |  |  |  | 8.68 µM |  |  |  | 0.177 µM |  |  | > 10 µM | > 10 µM |  | > 10 µM | > 10 µM
16 | C[C@@H]1C[C@H](C)N1C(=O)C1C=C2c3cccc4[nH]cc(c34)C[C@H]2N(C)C1 (stereo partly drawn) [cis-2a] | 0.195 µM | 0.0023 µM | 0.0129 µM | > 10 µM |  | 0.0164 µM |  | 0.232 µM |  |  | > 10 µM | > 10 µM | 0.044 µM | > 10 µM | > 10 µM
17 | C[C@@H]1C[C@@H](C)N1C(=O)C1C=C2c3cccc4[nH]cc(c34)C[C@H]2N(C)C1 (some centres undefined) [rr-2b] | 0.138 µM | 0.0052 µM | 0.0605 µM | > 10 µM |  | 0.0127 µM |  | 0.342 µM |  |  | > 10 µM | > 10 µM | 0.312 µM | > 10 µM | > 10 µM
